Data as given in US11759435B2, “Dihydrochalcone derivatives influencing inflammatory states” (SYMRISE AG, priority 2016, dated 2023).

Tested on: IL-8 release by HGF-1 cells
Test: Anti-inflammatory action in HGF-1 cells: IL-8 release after PG-LPS stimulation (Example TS1)
Type: cell-based
Settings: Homo sapiens, co-incubation with 10 μg/ml PG-LPS, 6 h, % IL-8 release vs PG-LPS control, read-out: IL-8 T/C [%]
Method: Anti-inflammatory action in human gingival fibroblastic cells (HGF-1)
DMEM containing 10% FBS, 1% penicillin/streptomycin and 4% glutamine was used as the medium. For determination of the anti-inflammatory action the cells were incubated with 10 μg/ml PG-LPS for 6 hrs. […] In each case 4 samples with two technical replicates were measured. In addition to this control the cells were co-incubated with
(a) 10 μg/ml PG-LPS and also with
After incubation the cell culture medium was transferred into an Eppendorf reaction vessel and at 4° C. for 10 min subjected to centrifugation (1000×g) in order to separate the cell debris. The supernatant was stored at −80° C. until analysis.

O=C(CCc1ccc(O)cc1)c1c(O)cc(O)cc1O [Compound 4]
activity at 1 µM (HGF1, 1 μM test compound): 106% | activity at 100 µM (HGF1, 100 μM test compound): 50%
